Test results as given in publication PMC12692346, “Imidazolinium-Based NHC–Metal Complexes Overcome Both Cancer Multidrug Resistance and Cisplatin Resistance In Vitro” (International Journal of Molecular Sciences, 2025).

Legend:
[1] = system: CST-2/3 cisplatin-resistant cells; test: Monoculture PrestoBlue cytotoxicity test, cisplatin-resistant CST-2/3; format: cell-based, mouse; details: for RR_CST resistance ratio (IC50_CST-2/3 / IC50_CST): CST-2/3 vs CST; for IC50: monoculture, 120 h exposure, PrestoBlue
Procedure: (§1) CST, a drug-naïve murine breast cancer cell line, and cisplatin-resistant cells CST-2/3 were seeded in monoculture into 384-well plates (Corning Inc., Corning, NY, USA) at a density of 2500 cells per well using automated liquid-handling. The cells were preincubated for 24 h to ensure adherence, followed by the addition of serially diluted compounds to a final well volume of 60 µL. Following 120 h of continuous drug exposure, cell viability was quantified using the PrestoBlue viability assay (Thermo Fisher Scientific, Waltham, MA, USA) after 1 h incubation at 555 nm excitation and 585 nm emission wavelengths.
(§2) pIC50 values derived from both co- and monoculture systems were determined by a custom program written in C# [25], then average and standard deviations were calculated and transformed to IC50 values. Every compound was tested in at least 3 independent experiments in triplicates.

[2] = system: CST murine breast cancer cell line; test: Monoculture PrestoBlue cytotoxicity test, CST; format: cell-based, mouse; details: 120 h exposure
Procedure: as §1, §2

[3] = system: Mes-Sa mCherry uterine sarcoma cell line; test: Triple coculture fluorescence cytotoxicity test, parental line; format: cell-based, human; details: 144 h incubation, fluorescence readout
Procedure: (§3) All synthesized complexes and representatives of the respective ligands (Lb, Lc, SIPr, IPr) were tested in a triple coculture of uterine sarcoma cell lines, consisting of the parental Mes-Sa cell line, and its MDR derivatives Mes-Sa/B1 and Mes-Sa/Dx5, transfected or selected in doxorubicin to overexpress P-glycoprotein, respectively (Figure 2a–c, Table S2). Each cell line expresses a distinct fluorescent protein (mCherry, mOrange, and eGFP, respectively), and the total fluorescence of a well is proportional to the cell number, allowing the assessment of compound cytotoxicity.
(§4) In a triple coculture system, cell lines expressing different fluorescent proteins were seeded in the same well. Cell lines (Mes-Sa mCherry, Mes-Sa/B1 mOrange, Mes-Sa/Dx5 eGFP [25]) were admixed and seeded on 384-well plates at a density of 3 × 800 cells/well (1:1:1 ratio), resulting in an overall total of 2400 cells. The next day, serially diluted compounds were added to the wells. Liquid handling was managed by a Hamilton StarLet pipetting robot. After 144 h of incubation, the fluorescence of mCherry (ex/em: 585/610 nm), mOrange (ex/em: 545/567 nm) and eGFP (ex/em: 485/510 nm) was recorded with an EnSpire plate reader (PerkinElmer, Waltham, MA, USA).
as §2

Mes-Sa/Dx5 eGFP = test: Triple coculture fluorescence cytotoxicity test, doxorubicin-selected MDR line; format: cell-based, human; details: for RR_Dx5 resistance ratio (IC50_MDR line / IC50_parental line) of Mes-Sa/Dx5: Mes-Sa/Dx5 vs Mes-Sa; for IC50: triple coculture, 144 h incubation, fluorescence readout
Procedure: as §3, §4, §2

Mes-Sa/B1 mOrange = test: Triple coculture fluorescence cytotoxicity test, ABCB1-transfected MDR line; format: cell-based, human; details: for RR_B1 resistance ratio (IC50_MDR line / IC50_parental line) of Mes-Sa/B1: Mes-Sa/B1 vs Mes-Sa; for IC50: triple coculture, 144 h incubation, fluorescence readout
Procedure: as §3, §4, §2

Structure (SMILES) | RR_CST resistance ratio (IC50_CST-2/3 / IC50_CST) [1] | IC50 [1] [µM] | IC50 [2] [µM] | IC50 [3] [µM] | RR_Dx5 resistance ratio (IC50_MDR line / IC50_parental line) of Mes-Sa/Dx5 (Mes-Sa/Dx5 eGFP) | IC50 (Mes-Sa/Dx5 eGFP) [µM] | RR_B1 resistance ratio (IC50_MDR line / IC50_parental line) of Mes-Sa/B1 (Mes-Sa/B1 mOrange) | IC50 (Mes-Sa/B1 mOrange) [µM] | IC50 ([3]; listed as 1b*) [µM] | RR_Dx5 resistance ratio (IC50_MDR line / IC50_parental line) of Mes-Sa/Dx5 (Mes-Sa/Dx5 eGFP; listed as 1b*) | IC50 (Mes-Sa/Dx5 eGFP; listed as 1b*) [µM] | RR_B1 resistance ratio (IC50_MDR line / IC50_parental line) of Mes-Sa/B1 (Mes-Sa/B1 mOrange; listed as 1b*) | IC50 (Mes-Sa/B1 mOrange; listed as 1b*) [µM] | IC50 ([3]; listed as 1c*) [µM] | RR_Dx5 resistance ratio (IC50_MDR line / IC50_parental line) of Mes-Sa/Dx5 (Mes-Sa/Dx5 eGFP; listed as 1c*) | IC50 (Mes-Sa/Dx5 eGFP; listed as 1c*) [µM] | RR_B1 resistance ratio (IC50_MDR line / IC50_parental line) of Mes-Sa/B1 (Mes-Sa/B1 mOrange; listed as 1c*) | IC50 (Mes-Sa/B1 mOrange; listed as 1c*) [µM]
N.N.O=C([O-])C1(C(=O)[O-])CCC1.[Pt+2] [Carboplatin, reference compound] | 7.0 | 6.24 | 0.89 |  |  |  |  |  |  |  |  |  |  |  |  |  |  | 
CC(C)c1cccc(C(C)C)c1N1[CH]([Cu][Cl])N(Cc2ccccc2)C[C@@H]1C(C)(C)C (stereo partly drawn) [Compound 1a] |  |  |  | 0.52 | 1.3 | 0.69 | 4.7 | 2.45 |  |  |  |  |  |  |  |  |  | 
CC(C)c1cccc(C(C)C)c1N1[CH]([Cu][Cl])N([C@@H](C)c2ccccc2)C[C@@H]1C(C)(C)C (stereo partly drawn) [Compound 1b] | 1.8 | 4.92 | 2.81 | 1.74 | 1.3 | 2.32 | 4.9 | 8.51 | 0.75 | 1.9 | 1.46 | 7.0 | 5.25 |  |  |  |  | 
CC(C)c1cccc(C(C)C)c1N1[CH]([Cu][Cl])N([C@H](C)c2ccccc2)C[C@@H]1C(C)(C)C (stereo partly drawn) [Compound 1c] |  |  |  | 0.8 | 1.5 | 1.18 | 6.9 | 5.5 |  |  |  |  |  | 0.74 | 2.9 | 2.18 | 5.4 | 3.97
CC(C)c1cccc(C(C)C)c1N1[C](=[Cu][Cl])N([C@@H](C)c2cccc3ccccc23)C[C@@H]1C(C)(C)C [Compound 1d] | 1.3 | 1.82 | 1.38 | 0.51 | 3.4 | 1.74 | 9.8 | 4.94 |  |  |  |  |  |  |  |  |  | 
CC(C)c1cccc(C(C)C)c1N1[CH]([Cu][Cl])N([C@@H](C)C(C)(C)C)C[C@@H]1C(C)(C)C (stereo partly drawn) [Compound 1f] |  |  |  | 3.04 | 1.4 | 4.19 | 2.7 | 8.13 |  |  |  |  |  |  |  |  |  | 
CC(C)c1cccc(C(C)C)c1N1[C](=[Ag][Cl])N([C@@H](C)c2ccccc2)C[C@@H]1C(C)(C)C [Compound 2b] | 2.2 | 2.17 | 1.01 | 0.75 | 7.3 | 5.5 | 19.1 | 14.3 |  |  |  |  |  |  |  |  |  | 
CC(C)c1cccc(C(C)C)c1N1[C](=[Ag][Cl])N([C@H](C)c2ccccc2)C[C@@H]1C(C)(C)C [Compound 2c] |  |  |  | 1.69 | 4.2 | 7.14 | 8.5 | 14.4 |  |  |  |  |  |  |  |  |  | 
CC(C)c1cccc(C(C)C)c1N1[C](=[Ag][Cl])N([C@@H](C)c2cccc3ccccc23)C[C@@H]1C(C)(C)C [Compound 2d] |  |  |  | 0.54 | 6.2 | 3.37 | 9.6 | 5.2 |  |  |  |  |  |  |  |  |  | 
CC(C)c1cccc(C(C)C)c1N1[C](=[Ag][Cl])N([C@H](C)c2ccc3ccccc3c2)C[C@@H]1C(C)(C)C [Compound 2e] | 1.5 | 1.98 | 1.28 | 0.93 | 5.6 | 5.25 | 7.9 | 7.37 |  |  |  |  |  |  |  |  |  | 
CC(C)c1cccc(C(C)C)c1N1[C](=[Ag][Cl])N([C@@H](C)C(C)(C)C)C[C@@H]1C(C)(C)C [Compound 2f] |  |  |  | 0.74 | 1.8 | 1.37 | 5.1 | 3.77 |  |  |  |  |  |  |  |  |  | 
